Measurements from the METLIN SMRT retention time set (Domingo-Almenara et al. 2019).

Experiment: gradient 5% acetonitrile 3 min, to 50% in 2 min, to 85% in 15 min, held 3 min, 100 µL/min
Conditions: column: Zorbax Extend-C18 2.1 x 50 mm; eluents: water / acetonitrile, 0.1% formic acid
In short: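 Values are retention times taken from adduct peaks that software picked and an analyst inspected. The pure standards were run as mixtures of ~100 molecules on HPLC linked to a quadrupole time-of-flight mass spectrometer, in positive and negative ionization mode. A Zorbax Extend-C18 column (2.1 × 50 mm, 1.8 μm) was used at 100 μL/min with water and acetonitrile, each including 0.1% formic acid.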

| SMILES | RP-LC retention time |
| --- | --- |
| Cc1ncsc1C1N(C2CCN(C(=O)c3cnccn3)CC2)C(=O)C12CCCC2 (centres undefined) | 654 s |
| CN1CCN(C2Cc3ccccc3Sc3ccc(Cl)cc32)CC1 (centres undefined) | 872 s |
| Clc1ccc(Cl)c(-c2ccc(CNCC3CCCO3)o2)c1 (centres undefined) | 699 s |
| CCc1nc2cc3c(cc2n1CC(=O)N1CCOCC1)OCCO3 | 567 s |
| CCC(=O)N1CCc2cc(C(=O)N3CCN(c4ccc(C(C)=O)cc4)CC3)ccc21 | 736 s |
| CC(C)C(=O)N1[C@H]2CC[C@@H]1c1cnc(-c3ccc(F)cc3)nc1C2 | 871 s |
| CC(C)CN1CCN(C(=O)c2nnc(-c3ccc(S(=O)(=O)N(C)C)cc3)o2)CC1 | 608 s |
| O=C(COc1ncccn1)Nc1ccc(F)c(F)c1 | 665 s |
| CN[C@@H]1C[C@@H](c2ccc(Cl)c(Cl)c2)c2ccccc21 | 824 s |
| O=C(Nc1ccccc1-c1nc2ccccc2[nH]1)c1cccc([N+](=O)[O-])c1 | 1040 s |
| Cc1ccc(NC(=O)Nc2cccc(-c3ccc(N4CCOCC4)nn3)c2)c(C)c1 | 732 s |
| COc1ccc(-c2cc(N3CCN(C(=O)Nc4cc(OC)ccc4OC)CC3)ncn2)cc1 | 685 s |
| Cc1ccc(-n2c(CN3CCN(C(=O)Nc4ccc5c(c4)OCCO5)CC3)nc3cccnc32)cc1 | 676 s |
| O=C(c1ccc(-c2ccc3c(c2)CCN3C(=O)Nc2ccc3c(c2)OCCO3)cc1)N1CCOCC1 | 804 s |
| Cc1ccccc1N1C(=O)CN(S(C)(=O)=O)CC1(C)C(=O)NCc1ccc(F)cc1 (centres undefined) | 818 s |
| COc1ccc(NC(=O)C2CCN(c3nnc(-c4ccc(OC)cc4)o3)CC2)cc1 | 824 s |
| CCC(C)N(CC(=O)N(Cc1ccco1)CC1CCCO1)C(=O)c1ccc(C)cc1 (centres undefined) | 917 s |
| CCCC1c2nccn2CCCN1C(=O)c1conc1C (centres undefined) | 568 s |
| O=C(Cc1ccc(F)cc1)Nc1ccccc1NC(=O)c1cccc(Cl)c1 | 897 s |

| SMILES | RP-LC retention time |
| --- | --- |
| Cc1nc(N2CCN(c3ccc(F)cc3)CC2)ncc1C(=O)O | 888 s |
| Cc1noc(C)c1C1CCCN1C(=O)c1cnn2c(C(F)(F)F)cc(-c3ccco3)nc12 (centres undefined) | 875 s |
| Cc1ccc(S(=O)(=O)N(C)CC2CCOCC2)cc1C | 886 s |
| CC(=O)N1CCC(C2CCN(C(=O)C3CC=CC3)C2)CC1 (centres undefined) | 664 s |
| CCn1cnc(S(=O)(=O)N2CCC(C(=O)N3CCN(c4cccc(C(F)(F)F)c4)CC3)CC2)c1 | 868 s |
| O=C(NC1CCCCCC1)C1CCN(c2cc(N3CCSCC3)ncn2)CC1 | 710 s |
| CC(C)N1C(=O)c2cccnc2Sc2cc(NC(=O)Cc3cccc(Cl)c3)ccc21 | 940 s |
| O=C(Cn1nc2n(c1=O)CCCC2)Nc1ccc(F)c(Cl)c1 | 670 s |
| Cc1ccc(NC(=O)C2CCCN(c3ncnc4c3nc3n4CCCCC3)C2)c(C)c1 (centres undefined) | 824 s |
| O=C(c1ccc(OCC2CCCN2C(=O)c2ccc(F)c(F)c2)cc1)N1CCCC1 (centres undefined) | 779 s |
| CCOC(=O)C1=C(CN2CCc3ccccc3C2)NC(=O)NC1c1cccc(OC)c1OC (centres undefined) | 660 s |
| CCCCn1cnc2c(nnn2C)c1=O | 621 s |
| Cc1cc(C)cc(NC(=O)N2CCC3(CC2)NC(=O)c2cc(F)ccc2N3C)c1 | 769 s |
| O=C([C@@H]1C[C@H](F)CN1S(=O)(=O)c1ccc(F)cc1F)N1CCCCC1 | 812 s |
| Cc1sc(C)c(S(=O)(=O)Nc2ccc(Cl)cc2)c1-c1cc(C(F)(F)F)on1 | 1210 s |
| COc1ccc(C2CC(=O)c3c(C)nc(N4CCN(c5ccccn5)CC4)nc3C2)cc1OC (centres undefined) | 676 s |
| O=C1CCCN1CCCN1C(=O)[C@H]2CN(Cc3cccc(F)c3F)C[C@H]2C1=O | 625 s |
| O=C(CN1C(=O)CCS(=O)(=O)c2ccccc21)Nc1ccc(Br)cc1 | 774 s |
| CCCOc1ccc(CN2CCN(C(=O)c3ccoc3)CC2)cn1 | 679 s |

| SMILES | RP-LC retention time |
| --- | --- |
| CS(=O)(=O)N(Cc1ccncc1)C1CN(C(=O)c2ccoc2)C1 | 552 s |
| CC1Oc2ccc(-c3csc(NC(=O)c4cccc(Br)c4)n3)cc2NC1=O (centres undefined) | 995 s |
| CC(C)(C)n1nc2c(c1NC(=O)c1nc3ccccc3s1)CSC2 | 952 s |
| Cc1oc(-c2[nH]ncc2C(=O)N2CCOCC2)cc1S(=O)(=O)Nc1ccc(F)cc1 | 669 s |
| COCCC(=O)N1CC(F)(F)C[C@H]1c1nc(COC)no1 | 649 s |
| CC(=O)n1nc(-c2ccc(C)c(C)c2)nc1N | 813 s |
| COCCCNC(=O)c1cc2c(n(-c3ccc(C(F)(F)F)cc3)c1=O)CCCC2=O | 823 s |
| Cc1ccc(NC(=O)CN2CCC(c3nc(-c4cccs4)no3)CC2)c(C)c1 | 718 s |
| O=C(NCCN1CCc2ccccc2C1)C1CCCN(c2ncnc3c2nc2n3CCCCC2)C1 (centres undefined) | 622 s |
| O=C(NCCN1CCCC1)c1cc2n(n1)CCCN(Cc1ccc(Cl)cc1)C2=O | 627 s |
| COc1nc(N)nc2c1ncn2[C@@H]1O[C@H](CO)[C@@H](O)[C@@H]1O | 568 s |
| COc1ccc(Cl)cc1NS(=O)(=O)c1cc(-c2cc(C(F)(F)F)on2)sc1C | 1220 s |
| CCOC(=O)c1c(S(=O)(=O)N2CCC(C(=O)Nc3ccc4c(c3)OCO4)CC2)c(C)n(C)c1C | 807 s |
| CCc1nnc(NC(=O)c2ccc3c(c2)c(=O)cc(C)n3CC)s1 | 571 s |
| O=C(NC1CCCCCC1)C1CCN(c2nc3ccccc3nc2C(F)(F)F)CC1 | 1200 s |
| COc1ccc(-c2cn3c(CC(=O)NC4CCCC4)csc3n2)cc1OC | 660 s |
| Cc1ccc(Nc2nc(-c3ccc(C)cc3)c(CC(=O)O)s2)cc1 | 946 s |
| CCn1cc2c3c(cccc31)CN(C(=O)c1ccc(Br)o1)CC2 | 1050 s |

The remaining lines, values ahead:

| RP-LC retention time | SMILES |
| --- | --- |
| 988 s | COc1ccc(-c2noc(Cc3nnc(-c4cccc(Br)c4)o3)n2)cc1OC |
| 914 s | Cc1oc2ccn(C)c(=O)c2c1C(=O)NCc1ccccc1Br |
| 758 s | CCOc1cccc(CNc2ncc(C(=O)O)c(C)n2)c1 |
| 743 s | CCc1nnc(-c2cccn2CC(=O)NCc2ccc3c(c2)OCO3)o1 |
| 634 s | CCc1nccn1Cc1noc(-c2ccccc2)n1 |
| 681 s | CN(Cc1ccccc1)C(=O)c1cc2c(n1C)CCN(Cc1cccc(F)c1)C2 |
| 949 s | COC(=O)c1cccc(Nc2c(-c3ccccc3)nc3cnc(Br)cn23)c1 |
| 759 s | CCOc1cc(C(=O)Nc2c(-c3ccccc3)nc3ccccn23)cc(OCC)c1OCC |
| 766 s | Cc1noc2nc(C)n(CC(=O)Nc3ccccc3Br)c(=O)c12 |
| 644 s | O=C1CCCc2nc(N3CCN(CCO)CC3)nc(Nc3ccccc3)c21 |
| 898 s | COC(=O)c1ccccc1NC(=O)Cn1c(=O)c(CCC(=O)NC2CCCC2)nc2ccccc21 |
| 923 s | Cc1cccc(OCc2nc(-c3ccc4c(c3)nnn4CCC(=O)N3CCCC3)no2)c1 |
| 684 s | Cc1ccc(-c2cc(C(=O)NCCCn3ccnc3)c3ccccc3n2)s1 |
| 568 s | C[C@@H]1CN(C(=O)Cc2cccnc2)C[C@H]1c1nc(-c2ccncc2)no1 |
| 632 s | CC(C)(C)NC(=O)CCc1c(-c2ccccc2)nc2ccccn12 |
| 866 s | Cc1nc(-c2noc(-c3ccccc3)n2)cn1CC(=O)NCc1ccc(Cl)cc1 |
| 1150 s | Cc1ccc(-c2noc(CN3C(=O)COc4ccc(Cl)cc43)n2)cc1 |

| RP-LC retention time | SMILES |
| --- | --- |
| 1010 s | COc1cccc(-c2noc(Cc3nnc(-c4cccc(Br)c4)o3)n2)c1OC |
| 988 s | CC(C)Cn1cc(S(=O)(=O)Nc2ccc(Cl)cc2)c2cccnc21 |
| 887 s | COc1ccc(-n2ccc(=O)c(-c3nc(-c4cc(OC)cc(OC)c4)no3)n2)cc1 |
| 1250 s | COc1ccccc1-c1nc(Cn2nnc(-c3nc(-c4cccc(C(F)(F)F)c4)no3)c2C)c(C)o1 |
| 788 s | COc1ccc(-c2nc(C)cc3nn(CC(=O)NCc4ccccc4)c(=O)n23)cc1 |
| 1120 s | CCOc1ccccc1NS(=O)(=O)c1cc(-c2cc(C(F)(F)F)on2)sc1C |
| 875 s | CCC(C(=O)N1CCN(c2ncccn2)CC1)n1c2ccccc2c2cnn(C)c(=O)c21 (centres undefined) |
| 1030 s | Clc1ccc(-c2nc(NC3CCCCCC3)c3ccccc3n2)cc1 |
| 646 s | O=c1c2cc(-c3ccccc3)nn2ccn1Cc1noc(CN2CCCC2)n1 |
| 1110 s | CCOc1ccc(N2C(=O)C3N=NN(Cc4nc(-c5ccc(C)c(C)c5)no4)C3C2=O)cc1 (centres undefined) |
| 807 s | CCS(=O)(=O)N1CC(=O)N(c2cc(C)ccc2C)C(C)(C(=O)NCc2ccccc2)C1 (centres undefined) |
| 1040 s | CCOc1ccc(-c2noc(C3CC(=O)N(c4cc(Cl)ccc4OC)C3)n2)cc1 (centres undefined) |
| 780 s | Cc1ccsc1CN1CCc2nc(N3CCN(c4ccccc4F)CC3)ncc2C1 |
| 728 s | O=C(Nc1ccccc1-c1nc2ccccc2s1)c1ccno1 |
| 772 s | Cc1ccccc1Cn1nc2n(c1=O)CCCCC2 |
| 766 s | CCOc1cc(C)c(C(C)C)cc1S(=O)(=O)NCc1ccccn1 |
